This is an account of results in PubChem BioAssay AID686975 (The Scripps Research Institute Molecular Screening Center, 2013).

Activity calls are given as the source filed them. How the calls were made is not given here.

In one experiment the test system is HSP70. Kind of experiment: heat shock protein up-regulation by compounds – cell-based, Western blot, chemiluminescence, late-stage follow-up (AID 686975). The conditions noted are these: cells, western blot Hsp70/Hsp90 up-regulation, hits give high values. (In general: In western blotting, separated proteins are transferred to a membrane and probed.)
Experiment [1] concerns the target Heat shock protein HSP 90-alpha (Homo sapiens) (UniProt P07900). Described as above. The conditions noted are these: cells, western blot Hsp70/Hsp90 up-regulation, hits give high values.

`CCCCOc1cccc(NC(=O)c2coc(=O)c(Br)c2)c1`: the up-regulation in the experiment with HSP70 (high dose (five times the IC50) 114 µM, low dose (half the IC50) 11.4 µM) is below 10%; in experiment [1] (HSP90, high dose (five times the IC50) 114 µM, low dose (half the IC50) 11.4 µM) it was < 50% (inactive).
Turning to `O=C(NCCc1ccc(F)cc1)c1coc(=O)c(Br)c1`, the up-regulation in the experiment with HSP70 (high dose (five times the IC50) 10.5 µM, low dose (half the IC50) 1.1 µM) is below 10%; in experiment [1] (HSP90, high dose (five times the IC50) 10.5 µM, low dose (half the IC50) 1.1 µM) it was below 10%.
In the case of `O=C(Nc1ccc(F)cc1)c1coc(=O)c(Br)c1`, the up-regulation in the experiment on HSP70 (high dose (five times the IC50) 17 µM, low dose (half the IC50) 1.7 µM) is below 10%; in experiment [1] (HSP90, high dose (five times the IC50) 17 µM, low dose (half the IC50) 1.7 µM), below 10%.
As for `CCOc1ccc(-c2nc(CN3CCCCC3CCn3cccn3)c(C)o2)cc1` (configuration not stated), the up-regulation in the experiment on HSP70 (high dose (five times the IC50) 111 µM, low dose (half the IC50) 11.1 µM) is below 10%; in experiment [1] (HSP90, high dose (five times the IC50) 111 µM, low dose (half the IC50) 11.1 µM), below 10%.
Consider `Cc1cc(NC(=O)c2coc(=O)c(Br)c2)ccc1C(C)C`, for which the up-regulation was below 10% in the experiment with HSP70 (high dose (five times the IC50) 44.5 µM, low dose (half the IC50) 4.5 µM) and below 10% in experiment [1] (HSP90, high dose (five times the IC50) 44.5 µM, low dose (half the IC50) 4.5 µM).
With `O=C(Nc1ccccc1I)c1coc(=O)c(Br)c1`, the up-regulation with HSP70 (high dose (five times the IC50) 147 µM, low dose (half the IC50) 14.7 µM) is below 10%; in experiment [1] (HSP90, high dose (five times the IC50) 147 µM, low dose (half the IC50) 14.7 µM), below 10%.
In the case of `CC(=O)c1ccc(NC(=O)c2coc(=O)c(Br)c2)cc1`, the up-regulation in the experiment with HSP70 (high dose (five times the IC50) 53.5 µM, low dose (half the IC50) 5.4 µM) is below 10%; in experiment [1] (HSP90, high dose (five times the IC50) 53.5 µM, low dose (half the IC50) 5.4 µM) it was below 10%.
For `Cc1cccc(NC(=O)c2coc(=O)c(Br)c2)n1`, the up-regulation was below 10% in the experiment on HSP70 (high dose (five times the IC50) 136.5 µM, low dose (half the IC50) 13.7 µM) and < 50% (inactive) in experiment [1] (HSP90, high dose (five times the IC50) 136.5 µM, low dose (half the IC50) 13.7 µM).
In the case of `CCCCCCCCOc1ccc(NC(=O)c2coc(=O)c(Br)c2)cc1`, the up-regulation with HSP70 (high dose (five times the IC50) 64.5 µM, low dose (half the IC50) 6.5 µM) is below 10%; in experiment [1] (HSP90, high dose (five times the IC50) 64.5 µM, low dose (half the IC50) 6.5 µM), < 50% (inactive).
In the case of `O=C(NCc1cccnc1)c1coc(=O)c(Br)c1`, the up-regulation is below 10% in the experiment with HSP70 (high dose (five times the IC50) 17.5 µM, low dose (half the IC50) 1.8 µM) and below 10% in experiment [1] (HSP90, high dose (five times the IC50) 17.5 µM, low dose (half the IC50) 1.8 µM).
As to `COC(=O)c1ccc2nc(NC(=O)C3CC3)sc2c1`, the up-regulation was below 10% in the experiment with HSP70 (high dose (five times the IC50) 246 µM, low dose (half the IC50) 24.6 µM) and below 10% in experiment [1] (HSP90, high dose (five times the IC50) 246 µM, low dose (half the IC50) 24.6 µM).
On to `CC(C)CNC(=O)c1coc(=O)c(Br)c1`, for which the up-regulation is below 10% with HSP70 (high dose (five times the IC50) 37.5 µM, low dose (half the IC50) 3.8 µM) and below 10% in experiment [1] (HSP90, high dose (five times the IC50) 37.5 µM, low dose (half the IC50) 3.8 µM).
With `O=C(NCc1ccco1)c1coc(=O)c(Br)c1`, the up-regulation is below 10% in the experiment on HSP70 (high dose (five times the IC50) 24 µM, low dose (half the IC50) 2.4 µM) and below 10% in experiment [1] (HSP90, high dose (five times the IC50) 24 µM, low dose (half the IC50) 2.4 µM).
In the case of `COc1ccc(NC(=O)c2coc(=O)c(Br)c2)cc1`, the up-regulation with HSP70 (high dose (five times the IC50) 12 µM, low dose (half the IC50) 1.2 µM) was below 10%; in experiment [1] (HSP90, high dose (five times the IC50) 12 µM, low dose (half the IC50) 1.2 µM) it was below 10%.
With `CC(NC(=O)c1coc(=O)c(Br)c1)C1C2CCC3CC(C2)CC31` (configuration not stated), the up-regulation is below 10% in the experiment on HSP70 (high dose (five times the IC50) 9 µM, low dose (half the IC50) 0.9 µM) and below 10% in experiment [1] (HSP90, high dose (five times the IC50) 9 µM, low dose (half the IC50) 0.9 µM).
Regarding `COc1ccc(NC(=O)c2ccc(NC(=O)c3coc(=O)c(Br)c3)cc2)cc1`, the up-regulation is below 10% in the experiment with HSP70 (high dose (five times the IC50) 60.5 µM, low dose (half the IC50) 6.1 µM) and below 10% in experiment [1] (HSP90, high dose (five times the IC50) 60.5 µM, low dose (half the IC50) 6.1 µM).
